Biological target: T1, Recombinant purified human JAK3 (Homo sapiens, UniProt P52333)
T1 construct: purchased Promega V9441
T1 sequence (P52333 1-1124): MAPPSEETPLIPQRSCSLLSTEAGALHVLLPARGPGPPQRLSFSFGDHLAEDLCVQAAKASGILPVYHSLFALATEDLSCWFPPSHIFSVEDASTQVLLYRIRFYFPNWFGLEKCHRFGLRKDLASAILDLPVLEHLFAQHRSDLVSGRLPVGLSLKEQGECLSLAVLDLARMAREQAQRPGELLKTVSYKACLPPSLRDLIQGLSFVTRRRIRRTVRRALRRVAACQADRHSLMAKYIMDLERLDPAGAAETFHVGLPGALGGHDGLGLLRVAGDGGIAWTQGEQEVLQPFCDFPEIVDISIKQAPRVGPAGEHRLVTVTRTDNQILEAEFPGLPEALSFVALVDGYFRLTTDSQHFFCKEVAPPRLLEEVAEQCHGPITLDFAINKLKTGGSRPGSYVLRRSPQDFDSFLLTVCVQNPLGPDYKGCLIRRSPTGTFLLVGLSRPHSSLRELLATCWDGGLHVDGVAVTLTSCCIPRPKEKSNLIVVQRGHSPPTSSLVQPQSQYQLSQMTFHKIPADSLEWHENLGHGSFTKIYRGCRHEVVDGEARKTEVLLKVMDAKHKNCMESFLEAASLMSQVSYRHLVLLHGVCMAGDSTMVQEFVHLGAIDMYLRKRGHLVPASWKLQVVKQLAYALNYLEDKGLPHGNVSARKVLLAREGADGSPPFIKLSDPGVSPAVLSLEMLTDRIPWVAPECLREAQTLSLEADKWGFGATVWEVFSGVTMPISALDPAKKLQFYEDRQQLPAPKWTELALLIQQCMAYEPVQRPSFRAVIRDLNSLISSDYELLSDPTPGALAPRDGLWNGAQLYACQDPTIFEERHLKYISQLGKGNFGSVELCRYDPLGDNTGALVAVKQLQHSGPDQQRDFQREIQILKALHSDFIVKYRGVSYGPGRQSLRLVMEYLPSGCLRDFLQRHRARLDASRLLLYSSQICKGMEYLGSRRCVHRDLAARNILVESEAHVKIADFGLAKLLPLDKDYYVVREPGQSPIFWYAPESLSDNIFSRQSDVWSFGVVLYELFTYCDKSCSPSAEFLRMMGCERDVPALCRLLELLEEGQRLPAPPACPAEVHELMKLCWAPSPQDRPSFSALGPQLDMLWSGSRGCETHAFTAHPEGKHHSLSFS
Assay: JAK3 inhibitory activity test (ADP-Glo kinase assay)
Type: biochemical
Conditions: ATP 5 uM, 1 hour incubation at 30° C.
Procedure: The inhibitory activities against JAK3 were measured for the compounds prepared in the above Examples through in vitro analysis on the ADP Glow (Glo) platform.
Specifically, the inhibitory activities against JAK3 were measured using a JAK3 kinase assay kit (Promega, V9441), which was purchased from Promega. Recombinant purified human JAK3 was diluted with 1× kinase reaction buffer (JAK3: 40 mM Tris-CI, pH 7.5, 20 mM MgCl2, 0.1 mg/mL BSA and 50 uM OTT and added to a 96 well plate (JAK3: final concentration of 4 ng per reaction). The compounds prepared in the previous Examples were treated so as to be finally a 1% DMSO aqueous solution, and a substrate cocktail containing ATP (JAK3: final concentration of 5 uM) and 0.2 ug/ul of Poly(Glu4, Tyri) peptide (JAK3 final concentration) in the total 25 uL reactants was added to a 96-well plate to initiate enzymatic reaction. After incubation (30° C.) for 1 hour, equivalent volume (25 uL per reaction) of ADP Glo was added and incubated (30° C.) for 40 minutes at room temperature. Then, a kinase detection reagent (50 uL per reaction) was added and incubated (30° C.) for 30 minutes at room temperature. The kinase activity was measured by chemiluminescence according to the instructions of ADP Glo kinase assay kit, and the inhibitory activity of the compounds according to the present invention was calculated. For the analysis of the results of each compound, Microsoft Excel was used, and IC50 values were calculated by SigmaPlot software.

SMILES | IC50
C=CC(=O)Nc1cccc(Oc2cccc3nc(Nc4ccc(OCCN(CC)CC)cc4)nn23)c1 [Example 15, N-(3-(2-(4-(2-(diethylamino)ethoxy)phenylamino)-[1,2,4]triazolo[1,5-a]pyridin-5-yloxy)phenyl)acrylamide] | 6.2 nM
C=CC(=O)Nc1cccc(Oc2cccc3nc(Nc4cnn(CCN5CCOCC5)c4)nn23)c1 [Example 19, N-(3-(2-(1-(2-morpholinoethyl)-1H-pyrazol-4-ylamino)-[1,2,4]triazolo[1,5-a]pyridin-5-yloxy)phenyl)acrylamide] | 5.1 nM
C=CC(=O)Nc1cccc(Oc2cccc3nc(Nc4ccc5nc(Cl)sc5c4)nn23)c1 [Example 11, N-(3-(2-(2-chlorobenzo[d]thiazol-6-ylamino)-[1,2,4]triazolo[1,5-a]pyridin-5-yloxy)phenyl)acrylamide] | 10.3 nM

The next lines start with the values.

IC50 | SMILES
35.8 nM | C=CC(=O)Nc1cccc(Oc2cccc3nc(Nc4cccc(Oc5ccccc5)c4)nn23)c1 [Example 5, N-(3-(2-(3-phenoxyphenylamino)-[1,2,4]triazolo[1,5-a]pyridin-5-yloxy)phenyl)acrylamide]
2.1 nM | C=CC(=O)Nc1cccc(Oc2cccc3nc(Nc4ccc(N(C)C)cc4)nn23)c1 [Example 6, N-(3-(2-(4-(dimethylamino)phenylamino)-[1,2,4]triazolo[1,5-a]pyridin-5-yloxy)phenyl)acrylamide]
